target: EP4 (Homo sapiens, UniProt P35408); experiment: EP4 Antagonism by CRE-PLAP Reporter Assay (SE302 cells, PGE2-stimulated); format: cell-based; design: HEK293 cells express endogenous EP4; endogenous in cells; host or cells: SE302 (HEK293 clone with CRE-PLAP reporter); details: SE302 (HEK293) cells, 3 ng/mL PGE2, overnight; single or multiple assay average values
Excerpt: PGE2 and [^3H]-labelled PGE2 were purchased from Cayman Chemical (Ann Arbor, Mich.) and Perkin Elmer (Waltham, Mass.), respectively. Mouse breast 4T1 cells (CRL-2539) were obtained from American Tissue Culture Collection. SE302 cell line is a clone of the HEK293 cells containing cAMP response element (CRE) promoter that when activated drives secretion of placental-like alkaline phosphatase (PLAP). HEK293 cells express endogenous EP4 and show induction of PLAP in response to PGE2 and EP4 agonists, but not EP1, 2 or 3 agonists (Chen Q, Muramoto K, Masaaki N, Ding Y, Yang H, Mackey M, Li W, Inoue Y, Ackermann K, Shrota H, Matsumoto I, Spyvee M, Schiller S, Sumida T, Gusovsky F, and Lamphier M. A novel antagonist of the prostaglandin E2 EP4 receptor inhibits Th1 differentiation and Th17 expansion and is orally active in arthritis models. British J Pharmacol, 2010, 160: 292-310). BalB/C female mice at 7-8 week age were purchased from Jackson Laboratory (Bar Harbor, Me.). Mice were maintained under specific pathogen-free conditions.
EP4 Antagonism by CRE-PLAP Reporter Assay: SE302 cells were maintained in DMEM/F12 (50:50) (MediaTech) supplemented with 10% FBS (Tissue Culture Biologicals) plus penicillin/streptomycin. When used for assays, cells were plated in a 96-well plate at 2×10^4 cells/100 μL/well in serum-free assay medium (DMEM/F12 supplemented with 0.1% BSA plus penicillin/streptomycin) and incubated for 4-6 h. Cells were then stimulated with 3 ng/mL of PGE2 in the presence or absence of various concentrations of test compound overnight, and PLAP activity was measured by mixing 15 μL of culture supernatants with 75 μL of Lumi-phos (Lumigen, Inc.) and 60 μL of assay buffer containing 8 mmol/L MgSO4 in 0.1 mol/L carbonate-bicarbonate buffer pH11 in a new 96-well black plate and incubated for 2 h at room temperature. The intensity of luminescence, which reflected the PLAP activity in the supernatant, was quantified with an Envision 2101 Multilabel Reader. Values obtained from DMSO treated samples in the presence of PGE2 were defined as 100% of control, whereas values obtained from DMSO treated samples in the absence of PGE2 were defined as 0% of control. % of control for compound treated samples was calculated as follows: (actual reading−0% of control)/(100% of control−0% of control)×100. IC50 value for each individual experiment was calculated using GraphPad Prism 6.02 (Lake Forest, Calif.) with % of control values.
Compounds of the present invention were assayed according to the methods as described above, and IC50 values, which may be single assay values or multiple assay average values, are summarized in Table 1. Compounds marked “ABS” show absolute stereochemistry.

EP4, sequence (P35408 whole entry): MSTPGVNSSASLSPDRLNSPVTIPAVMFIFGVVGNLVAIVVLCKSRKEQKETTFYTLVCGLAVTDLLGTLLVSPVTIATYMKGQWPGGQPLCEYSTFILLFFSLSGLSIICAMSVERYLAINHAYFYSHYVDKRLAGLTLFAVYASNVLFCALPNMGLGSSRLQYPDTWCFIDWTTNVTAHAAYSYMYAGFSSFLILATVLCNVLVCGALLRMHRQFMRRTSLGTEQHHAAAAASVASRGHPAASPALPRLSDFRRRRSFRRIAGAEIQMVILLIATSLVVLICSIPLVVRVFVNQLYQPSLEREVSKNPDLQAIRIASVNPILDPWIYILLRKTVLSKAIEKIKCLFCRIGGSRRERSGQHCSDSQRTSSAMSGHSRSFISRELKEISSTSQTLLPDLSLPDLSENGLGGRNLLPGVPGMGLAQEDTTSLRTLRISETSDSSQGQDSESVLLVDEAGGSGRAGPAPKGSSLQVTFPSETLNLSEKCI

Structure (SMILES)	IC50 [nM]
C[C@H](NC(=O)c1c(C(F)F)nn2c1N(Cc1cccc(C(F)(F)F)c1)CC2)c1ccc(C(=O)O)cc1 [Compound 94, (S)-4-(1-(6-(Difluoromethyl)-1-(3-(trifluoromethyl)benzyl)-2,3-dihydro-1H-imidazo[1,2-b]pyrazole-7-carboxamido)ethyl)benzoic Acid]	0.343
C[C@H](NC(=O)c1c(C(F)(F)F)nn2c1N(Cc1ccc(Cl)c(C(F)(F)F)c1)CC2)c1ccc(C(=O)O)cc1 [Compound 63, (S)-4-(1-(1-(4-chloro-3-(trifluoromethyl)benzyl)-6-(trifluoromethyl)-2,3-dihydro-1H-imidazo[1,2-b]pyrazole-7-carboxamido)ethyl)benzoic acid]	1.3
C[C@H](NC(=O)c1c(C(F)(F)F)nn2c1N(c1ccc(C(F)(F)F)cc1)CC2)c1ccc(C(=O)O)cc1 [Compound 47, (S)-4-(1-(6-(trifluoromethyl)-1-(4-(trifluoromethyl)phenyl)-2,3-dihydro-1H-imidazo[1,2-b]pyrazole-7-carboxamido)ethyl)benzoic Acid]	48.9
CSc1cc(CN2CCn3nc(C(F)(F)F)c(C(=O)N[C@@H](C)c4ccc(C(=O)O)cc4)c32)cc(C(F)(F)F)c1 [Compound 62, (S)-4-(1-(1-(3-(methylthio)-5-(trifluoromethyl)benzyl)-6-(trifluoromethyl)-2,3-dihydro-1H-imidazo[1,2-b]pyrazole-7-carboxamido)ethyl)benzoic Acid]	0.57
C[C@H](NC(=O)c1c(C(F)(F)F)nn2c1N(Cc1cccc(CO)c1)CC2)c1ccc(C(=O)O)cc1 [Compound 64, (S)-4-(1-(1-(3-(hydroxymethyl)benzyl)-6-(trifluoromethyl)-2,3-dihydro-1H-imidazo[1,2-b]pyrazole-7-carboxamido)ethyl)benzoic acid]	0.82
O=C(O)c1ccc(C2(NC(=O)c3c(C(F)(F)F)nn4c3N(Cc3ccc(C(F)(F)F)cc3)CC4)CC2)cc1 [Compound 29, 4-(1-(6-(trifluoromethyl)-1-(4-(trifluoromethyl)benzyl)-2,3-dihydro-1H-imidazo[1,2-b]pyrazole-7-carboxamido)cyclopropyl)benzoic Acid]	2.19
C[C@H](NC(=O)c1c(C(F)(F)F)nn2c1N(Cc1cc(F)cc(C(F)(F)F)c1)CC2)c1ccc(C(=O)O)cc1 [Compound 84, (S)-4-(1-(1-(3-fluoro-5-(trifluoromethyl)benzyl)-6-(trifluoromethyl)-2,3-dihydro-1H-imidazo[1,2-b]pyrazole-7-carboxamido)ethyl)benzoic acid]	0.358
C[C@H](NC(=O)c1c(C(F)(F)F)nn2c1N(Cc1cccc(CCl)c1)CC2)c1ccc(C(=O)O)cc1 [Compound 65, (S)-4-(1-(1-(3-(chloromethyl)benzyl)-6-(trifluoromethyl)-2,3-dihydro-1H-imidazo[1,2-b]pyrazole-7-carboxamido)ethyl)benzoic acid]	0.93
C[C@H](NC(=O)c1c(C(F)(F)F)nn2c1N(Cc1cc(C(F)(F)F)cc(C(F)(F)F)c1)CC2)c1ccc(C(=O)O)cc1 [Compound 5, (S)-4-(1-(1-(3,5-bis(trifluoromethyl)benzyl)-6-(trifluoromethyl)-2,3-dihydro-1H-imidazo[1,2-b]pyrazole-7-carboxamido)ethyl)benzoic Acid]	45.9
C[C@H](NC(=O)c1c(C(F)(F)F)nn2c1N(Cc1cccc(CN3CCn4nc(C(F)(F)F)c(C(=O)N[C@@H](C)c5ccc(C(=O)O)cc5)c43)c1)CC2)c1ccc(C(=O)O)cc1 [Compound 66, 4,4′-((1S,1′S)-((1,1′-(1,3-phenylenebis(methylene))bis(6-(trifluoromethyl)-2,3-dihydro-1H-imidazo[1,2-b]pyrazole-1,7-diyl-7-carbonyl))bis(azanediyl))bis(ethane-1,1-diyl))dibenzoic Acid]	35.8
C[C@H](NC(=O)c1c(C(F)(F)F)nn2c1N(Cc1ccc(I)c(C(F)(F)F)c1)CC2)c1ccc(C(=O)O)cc1 [Compound 68, (S)-4-(1-(1-(4-iodo-3-(trifluoromethyl)benzyl)-6-(trifluoromethyl)-2,3-dihydro-1H-imidazo[1,2-b]pyrazole-7-carboxamido)ethyl)benzoic acid]	10.9
C[C@H](NC(=O)c1c(C(F)(F)F)nn2c1N(Cc1cccc(C(F)(F)F)c1)CC2)c1ccc(C(=O)O)cc1F [Compound 23, (S)-3-fluoro-4-(1-(6-(trifluoromethyl)-1-(3-(trifluoromethyl)benzyl)-2,3-dihydro-1H-imidazo[1,2-b]pyrazole-7-carboxamido)ethyl)benzoic Acid]	0.41
C[C@H](NC(=O)c1c(C(F)(F)F)nn2c1N(Cc1cccc(C(F)(F)F)c1)CC2)c1ccc(C(=O)NC2(C#N)CC2)cc1 [Compound 101, (S)—N-(1-(4-((1-Cyanocyclopropyl)carbamoyl)phenyl)ethyl)-6-(trifluoromethyl)-1-(3-(trifluoromethyl)benzyl)-2,3-dihydro-1H-imidazo[1,2-b]pyrazole-7-carboxamide]	32.9
C[C@H](NC(=O)c1c(C(F)(F)F)nn2c1N(Cc1ccc(C(F)(F)F)cc1)CC2)c1ccc(C(=O)O)cc1 [Compound 3, (S)-4-(1-(6-(trifluoromethyl)-1-(4-(trifluoromethyl)benzyl)-2,3-dihydro-1H-imidazo[1,2-b]pyrazole-7-carboxamido)ethyl)benzoic acid]	3.19
Cc1nn2c(c1C(=O)NC1(c3ccc(C(=O)O)cc3)CC1)N(Cc1ccc(C(F)(F)F)cc1)CC2 [Compound 28, 4-(1-(6-methyl-1-(4-(trifluoromethyl)benzyl)-2,3-dihydro-1H-imidazo[1,2-b]pyrazole-7-carboxamido)cyclopropyl)benzoic Acid]	8.68
C[C@H](NC(=O)c1c(C(F)(F)F)nn2c1N(Cc1cccc(C(F)(F)F)c1)CC2)c1ccc(-c2nn[nH]n2)cc1 [Compound 36, (S)—N-(1-(4-(2H-tetrazol-5-yl)phenyl)ethyl)-6-(trifluoromethyl)-1-(3-(trifluoromethyl)benzyl)-2,3-dihydro-1H-imidazo[1,2-b]pyrazole-7-carboxamide]	0.31
C[C@H](NC(=O)c1c(C(F)(F)F)nn2c1N(Cc1cccc(C(F)(F)F)c1)CC2)c1ccc(C(=O)NS(=O)(=O)c2ccc(N)cc2)cc1 [Compound 72, (S)—N-(1-(4-(((4-aminophenyl)sulfonyl)carbamoyl)phenyl)ethyl)-6-(trifluoromethyl)-1-(3-(trifluoromethyl)benzyl)-2,3-dihydro-1H-imidazo[1,2-b]pyrazole-7-carboxamide]	51.2
C[C@H](NC(=O)c1c(-c2ccccc2)nn2c1N(Cc1cccc(C(F)(F)F)c1)CC2)c1ccc(C(=O)O)cc1 [Compound 60, (S)-4-(1-(6-phenyl-1-(3-(trifluoromethyl)benzyl)-2,3-dihydro-1H-imidazo[1,2-b]pyrazole-7-carboxamido)ethyl)benzoic Acid]	7.65
C=C1CCC(CN2CCn3nc(C(F)(F)F)c(C(=O)N[C@@H](C)c4ccc(C(=O)O)cc4)c32)CC1 [Compound 79, (S)-4-(1-(1-((4-methylenecyclohexyl)methyl)-6-(trifluoromethyl)-2,3-dihydro-1H-imidazo[1,2-b]pyrazole-7-carboxamido)ethyl)benzoic acid]	18.9
